From the NIST ThermoML archive (doi:10.1016/j.fluid.2013.08.041) come the findings set out here.

Numbers after ± are expanded uncertainties.

For the series the following is noted: Liquid; for Critical pressure: Direct measurement; for Normal boiling temperature: Ebulliometric method (Recirculating still); for Critical temperature: Visual observation in a stirred cell.

As for `Cc1cc(C)c2ccccc2c1` [1,3-dimethylnaphthalene], the Critical pressure was 2740 ± 160 kPa, the Normal boiling temperature turned out to be 265.1 ± 0.2 °C and the Critical temperature is recorded as 772 ± 16 K.
As to `Cc1ccc(C)c2ccccc12` [1,4-dimethylnaphthalene], the Critical pressure is 2790 ± 160 kPa, the Normal boiling temperature came to 265.1 ± 0.2 °C and the Critical temperature is on record as 778 ± 16 K.
As to `Cc1cccc2ccccc12` [1-methylnaphthalene], the Critical pressure was 3540 ± 220 kPa, the Normal boiling temperature came out at 244.6 ± 0.2 °C and the Critical temperature stood at 773 ± 16 K.
Consider `CCc1ccc2ccccc2c1` [2-ethylnaphthalene], for which the Critical pressure is on record as 2790 ± 160 kPa, the Normal boiling temperature stood at 254.1 ± 0.2 °C and the Critical temperature stood at 763 ± 16 K.
With `Cc1ccc2ccccc2c1` [2-methylnaphthalene], the Critical pressure stood at 3300 ± 200 kPa, the Normal boiling temperature amounted to 241.1 ± 0.2 °C and the Critical temperature worked out at 755 ± 16 K.
